This test has as its system rabbit aorta rings contracted with phenylephrine. Nature of the test: Vasorelaxant effect in vitro. Details: species or system Rabbits. Particulars: Oryctolagus cuniculus; concentration reducing height of phenylephrine-induced contraction of rabbit aorta rings by 50%; 0.1% DMSO. The protocol: Rabbits are stunned by a blow to the neck and exsanguinated. The aorta is removed, freed from adhering tissue and divided into rings of a width of 1.5 mm. The rings are placed individually under an initial tension in 5 ml organ baths with Krebs-Henseleit solution which is at 37° C., is gassed with carbogen and has the following composition (in each case mM): NaCl: 119; KCl: 4.8; CaCl2×2H2O: 1; MgSO4×7H2O: 1.4; KH2PO4: 1.2; NaHCO3: 25; glucose: 10. The force of contraction is detected with Statham UC2 cells, amplified and digitized via A/D converters (DAS-1802 HC, Keithley Instruments, Munich) and recorded in parallel on chart recorders. Contractions are induced by cumulatively adding increasing concentrations of phenylephrine to the bath. After several control cycles, the substance to be investigated is added in each further run in increasing dosage in each case, and the height of the contraction achieved is compared with the height of the contraction reached in the last preceding one. The concentration necessary to reduce the height of the control value by 50% is calculated from this (IC50 value). The standard application volume is 5 μl, the proportion of DMSO in the bath solution corresponds to 0.1%.

The text below walks through data of US8334291B2, “Aliphatically substituted pyrazolopyridines, and the use thereof” (Bayer Intellectual Property GmbH, priority 2008, dated 2012).

Each structure is given as a SMILES string.

With `COC(=O)Nc1c(N)nc(-c2nn(CC3CCCCC3)c3ncccc23)nc1N` [Example 1, Methyl[4,6-diamino-2-(1-cyclohexylmethyl-1H-pyrazolo[3,4-b]pyridin-3-yl)pyrimidin-5-yl]carbamate], 870 nM corresponded to half-maximal inhibition (IC50).

Regarding `Nc1nc(-c2nn(CC3CCCCCC3)c3ncccc23)ncc1-c1ccncc1` [Example 5, 2-[1-(Cycloheptylmethyl)-1H-pyrazolo[3,4-b]pyridin-3-yl]-5-(pyridin-4-yl)pyrimidine-4-amine], the IC50 (usually the concentration that gives 50% inhibition) came to 1000 nM.
